{
  "source": "patent US7629150B2",
  "about": "“Transformed cell harboring DNA or RNA encoding sugar chain synthesizing agent having β1,3-N-acetylglucosaminyltransferase activity” (Kyowa Hakko Kirin Co., Ltd., priority 2000, dated 2009)",
  "target": "T1, G6 polypeptide (Homo sapiens, UniProt Q9BYG0)",
  "T1 construct": "In order to obtain a DNA encoding the full-length G6 polypeptide, PCR was carried out; expressed in transfected cells; Triton X-100 cell extract",
  "T1 sequence (Q9BYG0 1-378)": "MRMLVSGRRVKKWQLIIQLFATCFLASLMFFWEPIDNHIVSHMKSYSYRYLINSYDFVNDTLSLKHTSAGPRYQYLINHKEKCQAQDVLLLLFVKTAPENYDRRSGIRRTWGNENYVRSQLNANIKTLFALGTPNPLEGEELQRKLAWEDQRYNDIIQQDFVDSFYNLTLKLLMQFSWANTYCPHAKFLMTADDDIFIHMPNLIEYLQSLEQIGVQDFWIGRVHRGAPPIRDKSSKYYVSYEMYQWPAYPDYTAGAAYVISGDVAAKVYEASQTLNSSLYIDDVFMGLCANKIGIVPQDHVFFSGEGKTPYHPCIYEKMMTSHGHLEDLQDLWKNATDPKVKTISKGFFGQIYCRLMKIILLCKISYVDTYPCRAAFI",
  "experiment": "β1,3-N-acetylglucosaminyltransferase activity of cell extract of Namalwa cells transfected with pAMo-G6, 2-aminobenzamide-labeled oligosaccharide substrates",
  "type": "biochemical",
  "details": "cell extract (20 μg protein) of pAMo-G6-transfected Namalwa cells; 2-aminobenzamide-labeled substrate; 37° C., 16 hours",
  "protocol": "The transformant cells (about 2×10^7 cells) obtained in Example 6(1) were put into a microtube (1.5 ml: manufactured by Eppendorf), and the cells were collected by centrifugation (550×g, 7 minutes). The cells were washed with 0.9 ml of PBS, the washed cells were suspended in a solution (100 μl) containing 20 mmol/l HEPES (pH 7.2) and 2% Triton X-100 and then the cells were disrupted using a sonicator (Bioruptor; manufactured by COSMO BIO). After the mixture was allowed to stand at 4° C. for 1 hour, the supernatant was obtained by centrifugation (550×g, 7 minutes). The supernatant was used as an enzyme sample.\nA β1,3-N-acetylglucosaminyltransferase activity was measured by using this enzyme sample and 2-aminobenzamide-labeled sugar chain substrates. […]\nThe activity measurement was carried out using known methods [FEBS, 462, 289 (1999), J. Biol. Chem., 269, 14730-14737 (1994), J. Biol. Chem., 267, 23507 (1992), J. Biol. Chem., 267, 2994 (1992)]. Specifically, the reaction was carried out at 37° C. for 16 hours in 20 μl of an assay solution [150 mmol/l MOPS (pH 7.5), 50 mmol/l UDP-GlcNAc (manufactured by SIGMA), 20 mmol/l sodium cacodylate (pH 7.2), 0.4% Triton CF-54, 10 mmol/l MnCl2, 15 mmol/l 2-aminobenzamide-labeled sugar chain substrate, the above cell extract (20 μg as protein)], and then the product was detected by high performance liquid chromatography (HPLC). […]",
  "data": [
    {"smiles": "CC(=O)N[C@H]1[C@H](O[C@H]2[C@@H](O)[C@@H](CO)O[C@@H](O[C@H]3[C@H](O)[C@@H](NC(C)=O)C(O)O[C@@H]3CO)[C@@H]2O)O[C@H](CO)[C@@H](O[C@@H]2O[C@H](CO)[C@H](O)[C@H](O)[C@H]2O)[C@@H]1O", "note": "(some centres unmarked) [2LN, Galβ1-4GlcNAcβ1-3Galβ1-4GlcNAc]", "values": [
      {"measurement": "ratio of the substrate converted into the product", "value": 3.95, "unit": "%"}
    ]},
    {"smiles": "CC(=O)N[C@H]1[C@H](O[C@H]2[C@@H](O)[C@@H](CO)O[C@@H](O[C@H]3[C@H](O)[C@@H](O)C(O)O[C@@H]3CO)[C@@H]2O)O[C@H](CO)[C@@H](O[C@@H]2O[C@H](CO)[C@H](O)[C@H](O)[C@H]2O)[C@@H]1O", "note": "(mixture of isomers) [LNnT, lacto-N-neotetraose]", "values": [
      {"measurement": "ratio of the substrate converted into the product", "value": 6.11, "unit": "%"}
    ]}
  ]
}
